Measurements published in patent US20230416271A1, “HETEROARYLQUINAZOLINE COMPOUNDS AS PROTEIN KINASE INHIBITORS” (CHENGDU CYNOGEN BIO-PHARMACEUTICAL TECHNOLOGY CO., LTD., priority 2020, published 2023).

Tests used:
Format in all cases: biochemical
CDK2/Cyclin A2 = CDK2/Cyclin A2 (Homo sapiens (Human), UniProt P24941); assay: Kinase activity assay (Caliper Mobility Shift Assay), CDK2/Cyclin A2
Procedure: (§1) The inhibitory effect of compounds against the kinase CDK4/cyclin D3 was detected by Caliper Mobility Shift Assay method. The final concentration of the compounds to be tested was set at 10 concentrations starting from 1 uM by 3-fold serial dilution. 5 μL of compounds at 5-fold final concentration and 10 μL of CDK4/cyclin D3 kinase solution at a final concentration of 10 nM was added to a 384-well reaction plate, respectively. The plate was pre-incubated for 10 min at room temperature (with negative control wells containing 10 uL of kinase buffer and 5 uL of 5% DMSO; positive control wells containing 10 μL of kinase solution and 5 uL of 5% DMSO). The reaction was initiated by adding 10 μL of ATP at a final concentration of 250 uM and the corresponding substrate peptide mixture at room temperature for 150 minutes. 30 uL of stop detection solution containing EDTA was added to stop the kinase reaction. Caliper EZ Reader was used to read the conversion rate. Conversion inhibition rate %=(average conversion rate of positive control %−conversion rate of sample %)/(average conversion rate of positive control %−average conversion rate of negative control %). wherein: negative control wells represent the conversion rate readings of wells without enzymatic activity; positive control wells represent conversion readings for wells with no compound inhibition. The log(inhibitor) vs. response—Variable slope of the analysis software GraphPad Prism 5 was used with log concentration value as the X-axis and the percent inhibition rate as the Y-axis to fit the dose-response curve, the IC50 value of each compound on the enzyme activity was thus obtained. Calculation formula: Y=Bottom+(Top−Bottom)/(1+10^((Log IC50−X)*HillSlope)).
(§2) The IC50 values and inhibitory activities of compounds of the present disclosure on CDK6/Cyclin D3, CDK2/Cyclin A2, and CDK9/cyclin T1 were tested in a similar manner.

CDK4/cyclin D3 = CDK4/cyclin D3 (Homo sapiens (Human), UniProt P11802); assay: Kinase activity assay (Caliper Mobility Shift Assay), CDK4/cyclin D3; conditions: 10 nM kinase, 250 uM ATP
Sequence of CDK4/cyclin D3 (P11802 whole entry, species assumed): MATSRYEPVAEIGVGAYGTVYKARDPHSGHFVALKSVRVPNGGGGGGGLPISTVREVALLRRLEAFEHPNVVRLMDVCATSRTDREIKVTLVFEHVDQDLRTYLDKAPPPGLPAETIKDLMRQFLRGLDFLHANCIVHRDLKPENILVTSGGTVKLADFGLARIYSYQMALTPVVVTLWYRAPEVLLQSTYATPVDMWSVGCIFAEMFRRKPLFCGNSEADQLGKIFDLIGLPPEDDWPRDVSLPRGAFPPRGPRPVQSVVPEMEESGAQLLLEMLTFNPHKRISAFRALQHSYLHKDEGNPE
Sequence of CDK4/cyclin D3 (P30281 whole entry partner, species assumed): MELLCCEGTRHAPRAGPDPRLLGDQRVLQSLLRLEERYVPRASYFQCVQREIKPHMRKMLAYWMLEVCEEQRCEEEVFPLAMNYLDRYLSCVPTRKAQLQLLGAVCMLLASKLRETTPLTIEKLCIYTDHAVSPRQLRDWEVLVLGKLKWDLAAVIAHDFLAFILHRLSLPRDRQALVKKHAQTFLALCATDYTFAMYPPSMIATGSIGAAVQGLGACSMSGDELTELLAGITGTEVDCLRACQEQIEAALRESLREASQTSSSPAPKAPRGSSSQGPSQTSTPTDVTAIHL
Procedure: as §1

CDK6/Cyclin D3 = CDK6/Cyclin D3 (Homo sapiens (Human), UniProt Q00534); assay: Kinase activity assay (Caliper Mobility Shift Assay), CDK6/Cyclin D3
Sequence of CDK6/Cyclin D3 (Q00534 whole entry, species assumed): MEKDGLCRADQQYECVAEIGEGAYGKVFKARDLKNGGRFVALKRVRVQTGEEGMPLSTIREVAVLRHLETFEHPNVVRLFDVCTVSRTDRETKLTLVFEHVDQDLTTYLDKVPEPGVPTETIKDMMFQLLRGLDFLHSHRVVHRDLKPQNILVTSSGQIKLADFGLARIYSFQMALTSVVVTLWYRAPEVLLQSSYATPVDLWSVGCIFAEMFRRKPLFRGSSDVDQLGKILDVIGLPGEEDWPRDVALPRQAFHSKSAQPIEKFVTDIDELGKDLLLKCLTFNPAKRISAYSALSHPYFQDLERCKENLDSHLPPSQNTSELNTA
Sequence of CDK6/Cyclin D3 (P30281 whole entry partner, species assumed): as the sequence (P30281 whole entry partner, species assumed) above
Procedure: as §1, §2

Structure (SMILES) | IC50 (CDK2/Cyclin A2) [nM] | IC50 (CDK4/cyclin D3) [nM] | IC50 (CDK6/Cyclin D3) [nM]
CC(C)n1nnc2ccc3cnc(N[C@H]4CC[C@H](N)CC4)nc3c21 [II.1, (1R,4R)-N1-(1-isopropyl-1H-[1,2,3]triazolo[4,5-h]quinazolin-8-yl)cyclohexane-1,4-diamine] | > 500 | > 500 | > 500
C[C@@]1(O)CCC[C@H]1c1noc2c(C(F)F)cc3cnc(NC4CCN(S(C)(=O)=O)CC4)nc3c12 [I.14, (1R,2S)-2-(6-(difluoromethyl)-2-((1-(methylsulfonyl)piperidin-4-yl)amino)isoxazolo[5,4-h]quinazolin-9-yl)-1-methylcyclopentan-1-ol] | 2 | 5 | 8
CC(C)n1nnc2ccc3cnc(NC4CCC(=O)NC4)nc3c21 (stereo not drawn) [II.35, 5-((1-isopropyl-1H-[1,2,3]triazolo[4,5-h]quinazolin-8-yl)amino)piperidin-2-one] | 10 | 50 | 58
CC(C)c1noc2ccc3cnc(N[C@H]4CC[C@H](Nc5ncccn5)CC4)nc3c12 [I.3, (1R,4R)-N^1-(9-isopropylisoxazolo[5,4-h]quinazolin-2-yl)-N^4-(pyrimidin-2-yl)cyclohexane-1,4-diamine] | 258 | 26 | 38
Cc1cc2cnc(NC3CCN(S(C)(=O)=O)CC3)nc2c2c(C(C)C)noc12 [I.12, 9-isopropyl-6-methyl-N-(1-(methylsulfonyl)piperidin-4-yl)isoxazolo[5,4-h]quinazolin-2-amine] | 1 | 5 | 13
CC(C)c1noc2c(F)cc3cnc(NC4CCN(S(C)(=O)=O)CC4)nc3c12 [I.6, 6-fluoro-9-isopropyl-N-(1-(methylsulfonyl)piperidin-4-yl)isoxazolo[5,4-h]quinazolin-2-amine] | 1 | 5 | 12
COCCN[C@H]1CC[C@H](Nc2ncc3ccc4nnn(C(C)C)c4c3n2)CC1 [II.4, (1R,4R)-N^1-(1-isopropyl-1H-[1,2,3]triazolo[4,5-h]quinazolin-8-yl)-N^4-(2-methoxyethyl)cyclohexane-1,4-diamine] | 20 | 16 | 22
COCCS(=O)(=O)N1CCC(Nc2ncc3ccc4nnn(C(C)C)c4c3n2)CC1 [II.18, 1-isopropyl-N-(1-((2-methoxyethyl)sulfonyl)piperidin-4-yl)-1H-[1,2,3]triazolo[4,5-h]quinazolin-8-amine] | 1 | 3 | 8
CC(C)c1noc2c(CO)cc3cnc(NC4CCN(S(C)(=O)=O)CC4)nc3c12 [I.10, (9-isopropyl-2-((1-(methylsulfonyl)piperidin-4-yl)amino)isoxazolo[5,4-h]quinazolin-6-yl)methanol] | 49 | 72 | 71
CC(C)n1nnc2ccc3cnc(N[C@H]4CC[C@H](N5CCN(C(=O)C6CC6)CC5)CC4)nc3c21 [II.9, Cyclopropyl(4-((1R,4R)-4-((1-isopropyl-1H-[1,2,3]triazolo [4,5-h]quinazolin-8-yl)amino)cyclohexyl)piperazin-1-yl) ketone] | 356 | 26 | 35
CC(C)n1nnc2ccc3cnc(NC4CCNCC4)nc3c21 [II.12, 1-isopropyl-N-(piperidin-4-yl)-1H-[1,2,3]triazolo[4,5-h] quinazolin-8-amine] | 151 | 51 | 89
CC(C)n1nnc2ccc3cnc(NC4CCN(C)CC4)nc3c21 [II.13, 1-isopropyl-N-(1-methylpiperidin-4-yl)-1H-[1,2,3]triazolo [4,5-h]quinazolin-8-amine] | 110 | 41 | 90
CC(C)c1noc2c1-c1nc(NC3CCN(S(C)(=O)=O)CC3)ncc1CC2 [I.15, 9-isopropyl-N-(1-(methylsulfonyl)piperidin-4-yl)-5,6-dihydroisoxazolo[5,4-h]quinazolin-2-amine] | 2 | 10 | 8
CC(C)n1nnc2ccc3cnc(NC4CCCNC4)nc3c21 (stereo not drawn) [II.34, 1-isopropyl-N-(piperidin-3-yl)-1H-[1,2,3]triazolo[4,5-h]quinazolin-8-amine] | 296 | 55 | 35

Now from value to compound:

IC50 (CDK2/Cyclin A2) [nM] | IC50 (CDK4/cyclin D3) [nM] | IC50 (CDK6/Cyclin D3) [nM] | Structure (SMILES)
1 | 10 | 24 | CC(C)c1noc2ccc3cnc(NC4CCN(S(C)(=O)=O)CC4)nc3c12 [I.5, 9-isopropyl-N-(1-(methylsulfonyl)piperidin-4-yl)isoxazolo[5,4-h]quinazolin-2-amine]
0.4 | 3 | 9 | CC(C)n1nnc2c(Cl)cc3cnc(NC4CCN(S(C)(=O)=O)CC4)nc3c21 [II.23, 4-chloro-1-isopropyl-N-(1-(methylsulfonyl)piperidin-4-yl)-1H-[1,2,3]triazolo[4,5-h]quinazolin-8-amine]
0.3 | 3 | 5 | C[C@@]1(O)CCC[C@H]1n1nnc2c(C(F)F)cc3cnc(NC4CCN(S(C)(=O)=O)CC4)nc3c21 [II.33]
0.2 | 3 | 5 | CC(C)n1nnc2c(C(F)F)cc3cnc(NC4CCN(S(C)(=O)=O)CC4)nc3c21 [II.27, 4-(difluoromethyl)-1-isopropyl-N-(1-(methylsulfonyl)piperidin-4-yl)-1H-[1,2,3]triazolo[4,5-h]quinazolin-8-amine]
0.3 | 3 | 7 | CC(C)n1nnc2c1-c1nc(NC3CCN(S(=O)(=O)C4CC4)CC3)ncc1CC2 [II.38, N-(1-(cyclopropylsulfonyl)piperidin-4-yl)-1-isopropyl-4,5-dihydro-1H-[1,2,3]triazolo[4,5-h]quinazolin-8-amine]
0.2 | 2 | 5 | CC(C)n1nnc2c(F)cc3cnc(NC4CCN(S(C)(=O)=O)CC4)nc3c21 [II.21, 4-fluoro-1-isopropyl-N-(1-(methylsulfonyl)piperidin-4-yl)-1H-[1,2,3]triazolo[4,5-h]quinazolin-8-amine]
0.2 | 3 | 7 | CCS(=O)(=O)N1CCC(Nc2ncc3cc(C(F)F)c4nnn(C(C)C)c4c3n2)CC1 [II.28, 4-(difluoromethyl)-N-(1-(ethylsulfonyl)piperidin-4-yl)-1-isopropyl-1H-[1,2,3]triazolo[4,5-h]quinazolin-8-amine]
0.3 | 3 | 6 | CC(C)n1nnc2c(C(F)F)cc3cnc(NC4CCN(S(=O)(=O)C(F)F)CC4)nc3c21 [II.30, 4-(difluoromethyl)-N-(1-((difluoromethyl)sulfonyl)piperidin-4-yl)-1-isopropyl-1H-[1,2,3]triazolo[4,5-h]quinazolin-8-amine]
0.2 | 3 | 5 | CC(C)n1nnc2ccc3cnc(NC4CCN(S(=O)(=O)C5CC5)CC4)nc3c21 [II.16, N-(1-(cyclopropylsulfonyl)piperidin-4-yl)-1-isopropyl-1H-[1,2,3]triazolo[4,5-h]quinazolin-8-amine]
0.2 | 1 | 3 | CC(C)n1nnc2c(C(F)F)cc3cnc(NC4CCN(S(=O)(=O)C5CC5)CC4)nc3c21 [II.29, N-(1-(cyclopropylsulfonyl)piperidin-4-yl)-4-(difluoromethyl)-1-isopropyl-1H-[1,2,3]triazolo[4,5-h]quinazolin-8-amine]
0.2 | 5 | 9 | C[C@@]1(O)CCC[C@H]1n1nnc2ccc3cnc(NC4CCN(S(C)(=O)=O)CC4)nc3c21 [II.32, (1R,2R)-1-methyl-2-(8-((1-(methylsulfonyl)piperidin-4-yl)amino)-1H-[1,2,3]triazolo[4,5-h]quinazolin-1-yl)cyclopentan-1-ol]
0.3 | 3 | 4 | CCS(=O)(=O)N1CCC(Nc2ncc3ccc4nnn(C(C)C)c4c3n2)CC1 [II.15, N-(1-(ethylsulfonyl)piperidin-4-yl)-1-isopropyl-1H-[1,2,3] triazolo[4,5-h]quinazolin-8-amine]
0.2 | 3 | 5 | [2H]c1cc2cnc(NC3CCN(S(C)(=O)=O)CC3)nc2c2c1nnn2C(C)C [II.25, 1-isopropyl-N-(1-(methylsulfonyl)piperidin-4-yl)-1H-[1,2,3]triazolo [4,5-h]quinazolin-4-d-8-amine]
0.2 | 4 | 12 | CNS(=O)(=O)N1CCC(Nc2ncc3ccc4nnn(C(C)C)c4c3n2)CC1 [II.20, 4-((1-isopropyl-1H-[1,2,3]triazolo[4,5-h]quinazolin-8-yl)amino)-N-methylpiperidin-1-sulfamide]
